Results: patent US20230407243A1, “GENETIC PLATFORM TO INVESTIGATE THE FUNCTIONS OF BACTERIAL DRUG EFFLUX PUMPS” (priority 2022, published 2023)
Read-outs that look alike come from different tables or passages of the source.

Tests used:
Type in all cases: cell-based, Escherichia coli
EKO-35 acrBD408A = test system: EKO-35 acrBD408A
Experimental: (§1) Synergy measurement using checkerboard analysis was performed in 96-well microtiter plates using the microdilution broth method, according to CLSI guidelines (Patel J. B., 2015). The cell inocula were prepared using the colony resuspension method. The minimum inhibitory concentrations (MICs) were defined as the lowest concentration that provided no growth, as determined by measurement of the OD600nm using a Synergy H1 microplate reader (BioTek). Susceptibility testing was performed in MHB II with a final volume of 100 μL. PAI3N (Bachem Americas) was solubilized in MHB II. […] Solvent controls were included in each plate.
(§2) The Fractional Inhibitory Concentration Index (FICI) was used to assess the synergy of PAI3N in combination with different antibiotics. The FICI represents the ΣFIC of each drug. The FICI for each drug was calculated using the following formula: FICI=FICA+FICB=(CA/MICA)+(CB/MICB). Where MICA and MICB are the MICs of drugs A (PAI3N/NMP) and B (antibiotic) alone, and CA and CB are the MICs of the drugs in combination. The effects of PAβN or NMP in combination with antibiotics were classified as: synergistic (FICI<0.5), additive (FICI>0.5-1.0), indifferent (FICI>1.0-2.0), and antagonistic (FICI>2.0). Fold increases in resistance provided by efflux pumps were calculated by dividing the MIC values of strains expressing efflux pumps by the MIC value of EKO-35.

EKO-35 = test system: EKO-35
Experimental: as §1, §2

wild-type E. coli K-12 = test system: wild-type E. coli K-12
Experimental: as §1, §2

ΔtolC-Pore = test system: ΔtolC-Pore
Experimental: as §1, §2

ΔtolC = test system: ΔtolC
Experimental: as §1, §2

[1] = test system: EKO-35 porinated strain expressing acrB; test: Checkerboard synergy (FICI), porinated strain
Experimental: as §1, §2

[2] = test system: EKO-35-Pore acrBD408A (functionally inactive AcrB variant); test: Checkerboard synergy (FICI), porinated strain
Experimental: as §1, §2

EKO-35-Pore = test: Checkerboard synergy (FICI), porinated strain
Experimental: as §1, §2

wild-type K-12-Pore = test: Checkerboard synergy (FICI), porinated strain
Experimental: as §1, §2

[3] = EKO-35 acrBD408A, NMP + antibiotic
[4] = EKO-35 acrBD408A, PAβN + antibiotic
[5] = strain EKO-35 acrBD408A, NMP + antibiotic
[6] = strain EKO-35, NMP + antibiotic
[7] = strain ΔtolC Pore, NMP + antibiotic
[8] = EKO-35 acrB Pore, NMP + antibiotic
[9] = strain EKO-35 acrB Pore, NMP + antibiotic
[10] = strain EKO-35 acrBD408A Pore, NMP + antibiotic
[11] = strain EKO-35 Pore, NMP + antibiotic

CC(=O)NC[C@H]1CN(c2ccc(N3CCOCC3)c(F)c2)C(=O)O1 [linezolid]
Effect (EKO-35 acrBD408A; [3]): Additive
FICI (EKO-35 acrBD408A; [3]): 0.516
Effect (EKO-35 acrBD408A; [4]): Additive
FICI (EKO-35 acrBD408A; [4]): 0.750
MICb Alone (EKO-35 acrBD408A; EKO-35 acrBD408A, antibiotic alone (PAβN checkerboard)): 16 µg/mL
MICb Combined (EKO-35 acrBD408A; EKO-35 acrBD408A, antibiotic in combination with PAβN): 4 µg/mL
Effect (EKO-35 acrBD408A; [5]): Additive (additive (FICI >0.5-1.0))
FICI (EKO-35 acrBD408A; [5]): 0.516
MICb Alone (EKO-35 acrBD408A; strain EKO-35 acrBD408A, antibiotic alone): 16 µg/mL
MICb Combined (EKO-35 acrBD408A; strain EKO-35 acrBD408A, antibiotic in combination with NMP): 8 µg/mL
Effect (EKO-35; EKO-35, NMP + antibiotic): Additive
FICI (EKO-35; EKO-35, NMP + antibiotic): 0.531
Effect (EKO-35; EKO-35, PAβN + antibiotic): Additive
FICI (EKO-35; EKO-35, PAβN + antibiotic): 0.750
MICb Alone (EKO-35; EKO-35, antibiotic alone (PAβN checkerboard)): 16 µg/mL
MICb Combined (EKO-35; EKO-35, antibiotic in combination with PAβN): 4 µg/mL
interaction of PAβN in combination with the labelled antibiotic (FICI) (EKO-35; efflux-deficient strains EKO-35, EKO-35 acrBD408A, ΔtolC): not synergistic
Effect (EKO-35; [6]): Additive (additive (FICI >0.5-1.0))
FICI (EKO-35; [6]): 0.531
MICb Alone (EKO-35; strain EKO-35, antibiotic alone): 16 µg/mL
MICb Combined (EKO-35; strain EKO-35, antibiotic in combination with NMP): 8 µg/mL
Effect (wild-type E. coli K-12; K-12, NMP + antibiotic): Synergistic
FICI (wild-type E. coli K-12; K-12, NMP + antibiotic): 0.375
Effect (wild-type E. coli K-12; K-12, PAβN + antibiotic): Synergistic
FICI (wild-type E. coli K-12; K-12, PAβN + antibiotic): 0.125
MICb Alone (wild-type E. coli K-12; K-12, antibiotic alone (PAβN checkerboard)): 256 µg/mL
MICb Combined (wild-type E. coli K-12; K-12, antibiotic in combination with PAβN): 16 µg/mL
Effect (wild-type E. coli K-12; strain K-12, NMP + antibiotic): Synergistic (Synergy (FICI ≤0.5))
FICI (wild-type E. coli K-12; strain K-12, NMP + antibiotic): 0.375
MICb Alone (wild-type E. coli K-12; strain K-12, antibiotic alone): 256 µg/mL
MICb Combined (wild-type E. coli K-12; strain K-12, antibiotic in combination with NMP): 32 µg/mL
Effect (ΔtolC-Pore; [7]): — (indifferent (FICI >1.0))
FICI (ΔtolC-Pore; [7]): 1.000
MICb Alone (ΔtolC-Pore; strain ΔtolC Pore, antibiotic alone): 8 µg/mL
MICb Combined (ΔtolC-Pore; strain ΔtolC Pore, antibiotic in combination with NMP): 4 µg/mL
FICI (ΔtolC-Pore; ΔtolC Pore, NMP + antibiotic): 1.000
Effect (ΔtolC-Pore; ΔtolC Pore, PAβN + antibiotic): Additive
FICI (ΔtolC-Pore; ΔtolC Pore, PAβN + antibiotic): 0.563
MICb Alone (ΔtolC-Pore; ΔtolC Pore, antibiotic alone (PAβN checkerboard)): 8 µg/mL
MICb Combined (ΔtolC-Pore; ΔtolC Pore, antibiotic in combination with PAβN): 0.5 µg/mL
Effect (ΔtolC; strain ΔtolC, NMP + antibiotic): — (indifferent (FICI >1.0))
FICI (ΔtolC; strain ΔtolC, NMP + antibiotic): 2.000
MICb Alone (ΔtolC; strain ΔtolC, antibiotic alone): 8 µg/mL
MICb Combined (ΔtolC; strain ΔtolC, antibiotic in combination with NMP): 8 µg/mL
FICI (ΔtolC; ΔtolC, NMP + antibiotic): 2.000
Effect (ΔtolC; ΔtolC, PAβN + antibiotic): Additive
FICI (ΔtolC; ΔtolC, PAβN + antibiotic): 0.750
MICb Alone (ΔtolC; ΔtolC, antibiotic alone (PAβN checkerboard)): 8 µg/mL
MICb Combined (ΔtolC; ΔtolC, antibiotic in combination with PAβN): 2 µg/mL
Effect [1, 8]: Synergistic
FICI [1, 8]: 0.250
Effect ([1]; EKO-35 acrB Pore, PAβN + antibiotic): Synergistic
MICb Alone ([1]; EKO-35 acrB Pore, antibiotic alone (PAβN checkerboard)): 128 µg/mL
MICb Combined ([1]; EKO-35 acrB Pore, antibiotic in combination with PAβN): 8 µg/mL
potentiation of the labelled compound by NMP ([1]; porinated strain producing AcrB): enhancing the activity
Effect [1, 9]: Synergistic (Synergy (FICI ≤0.5))
FICI [1, 9]: 0.250
MICb Alone ([1]; strain EKO-35 acrB Pore, antibiotic alone): 128 µg/mL
MICb Combined ([1]; strain EKO-35 acrB Pore, antibiotic in combination with NMP): 16 µg/mL
FICI ([2]; EKO-35 acrBD408A Pore, NMP + antibiotic): 2.000
FICI ([2]; EKO-35 acrBD408A Pore, PAβN + antibiotic): 1.000
MICb Alone ([2]; EKO-35 acrBD408A Pore, antibiotic alone (PAβN checkerboard)): 8 µg/mL
MICb Combined ([2]; EKO-35 acrBD408A Pore, antibiotic in combination with PAβN): 4 µg/mL
Effect [2, 10]: — (indifferent (FICI >1.0))
FICI [2, 10]: 2.000
MICb Alone ([2]; strain EKO-35 acrBD408A Pore, antibiotic alone): 8 µg/mL
MICb Combined ([2]; strain EKO-35 acrBD408A Pore, antibiotic in combination with NMP): 8 µg/mL
FICI (EKO-35-Pore; EKO-35 Pore, NMP + antibiotic): 2.000
FICI (EKO-35-Pore; EKO-35 Pore, PAβN + antibiotic): 1.000
MICb Alone (EKO-35-Pore; EKO-35 Pore, antibiotic alone (PAβN checkerboard)): 8 µg/mL
MICb Combined (EKO-35-Pore; EKO-35 Pore, antibiotic in combination with PAβN): 4 µg/mL
Effect (EKO-35-Pore; [11]): — (indifferent (FICI >1.0))
FICI (EKO-35-Pore; [11]): 2.000
MICb Alone (EKO-35-Pore; strain EKO-35 Pore, antibiotic alone): 8 µg/mL
MICb Combined (EKO-35-Pore; strain EKO-35 Pore, antibiotic in combination with NMP): 8 µg/mL
Effect (wild-type K-12-Pore; K-12 Pore, NMP + antibiotic): Synergistic
Effect (wild-type K-12-Pore; K-12 Pore, PAβN + antibiotic): Synergistic
FICI (wild-type K-12-Pore; K-12 Pore, PAβN + antibiotic): 0.250
MICb Alone (wild-type K-12-Pore; K-12 Pore, antibiotic alone (PAβN checkerboard)): 128 µg/mL
MICb Combined (wild-type K-12-Pore; K-12 Pore, antibiotic in combination with PAβN): 16 µg/mL
Effect (wild-type K-12-Pore; strain K-12 Pore, NMP + antibiotic): Synergistic (Synergy (FICI ≤0.5))
MICb Alone (wild-type K-12-Pore; strain K-12 Pore, antibiotic alone): 128 µg/mL
MICb Combined (wild-type K-12-Pore; strain K-12 Pore, antibiotic in combination with NMP): 32 µg/mL
